target: wild-type un-phosphorylated FGFR3 protein (Homo sapiens, UniProt P22607); test: FGFR Enzymatic Assay (FRET detection of peptide phosphorylation); assay type: biochemical; conditions: pre-incubated for 4 hours, read-out: FGFR3_Ki
Experimental: The inhibitor potency of the exemplified compounds was determined in an enzyme discontinuous assay that measures peptide phosphorylation using FRET measurements to detect product formation. Inhibitors were serially diluted in DMSO and a volume of 0.2 μL was transferred to the wells of a 384-well plate. A 5 μL/well volume of enzyme isoforms of FGFR (−1, −2, −3 wild-type and mutant isoforms, −4) including phosphorylated and un-phosphorylated proteins diluted in assay buffer (50 mM HEPES, 10 mM MgCl2, 1 mM EGTA, 0.01% Tween-20, 5 mM DTT, pH 7.5) was added to the plate and pre-incubated with inhibitor for 5 to 15 minutes at ambient temperature. Appropriate controls (enzyme blank and enzyme with no inhibitor) were included on the plate. […] The ATP Km values were pre-determined in a separate series of experiments. The reaction plate was incubated at 25° C. for 1 hr and the reactions were ended with the addition of 5 μL/well of quench solution (50 mM Tris, 150 mM NaCl, 0.5 mg/mL BSA, pH 7.8; 45 mM EDTA, 600 nM staurosporin, with Perkin Elmer Lance Reagents at 3.75 nM Eu-antibody PY20 and 180 nM APC-Streptavidin). The plate was allowed to equilibrate for ˜10 minutes at ambient temperature before scanning on a PheraStar plate reader (BMG Labtech) instrument.
Either GraphPad prism or XLfit was used to analyze the data. The IC50 values were derived by fitting the data to a four parameter logistic equation producing a sigmoidal dose-response curve with a variable Hill coefficient. Prism equation: Y=Bottom+(Top−Bottom)/(1+10^((LogIC50−X)*Hill slope)); XLfit equation: Y=(A+((B−A)/(1+((X/C)^D)))) where X is the logarithm of inhibitor concentration and Y is the response.
The data in Table 1 was measured in wild-type un-phosphorylated FGFR3 protein.

wild-type un-phosphorylated FGFR3 protein, sequence (P22607 23-806): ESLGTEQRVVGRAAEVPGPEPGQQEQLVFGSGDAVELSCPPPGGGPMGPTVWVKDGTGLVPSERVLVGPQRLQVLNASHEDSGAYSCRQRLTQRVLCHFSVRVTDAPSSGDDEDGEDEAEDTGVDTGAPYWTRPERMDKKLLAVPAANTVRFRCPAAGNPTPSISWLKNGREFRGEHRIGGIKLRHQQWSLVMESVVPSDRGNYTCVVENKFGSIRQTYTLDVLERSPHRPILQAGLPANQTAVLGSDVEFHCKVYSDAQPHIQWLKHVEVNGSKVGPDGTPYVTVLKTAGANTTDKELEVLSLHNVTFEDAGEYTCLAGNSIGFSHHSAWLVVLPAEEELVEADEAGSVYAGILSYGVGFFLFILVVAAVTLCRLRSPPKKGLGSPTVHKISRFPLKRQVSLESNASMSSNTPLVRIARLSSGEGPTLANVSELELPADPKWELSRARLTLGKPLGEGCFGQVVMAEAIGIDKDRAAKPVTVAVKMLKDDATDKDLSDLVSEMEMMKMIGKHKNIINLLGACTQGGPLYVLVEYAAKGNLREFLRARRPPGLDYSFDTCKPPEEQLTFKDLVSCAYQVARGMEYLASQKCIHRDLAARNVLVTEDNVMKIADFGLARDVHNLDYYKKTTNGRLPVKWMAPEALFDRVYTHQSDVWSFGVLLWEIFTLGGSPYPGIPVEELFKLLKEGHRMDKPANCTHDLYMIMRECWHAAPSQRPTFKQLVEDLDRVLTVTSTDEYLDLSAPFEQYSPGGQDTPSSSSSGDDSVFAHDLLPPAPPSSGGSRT

Structure (SMILES)	Ki [nM]
COc1cc(OC)cc(-c2c(-c3ccccc3Cl)nc3c4cc(-c5cnn(C)c5)cnc4ccn23)c1 [Example 4, 2-(2-Chlorophenyl)-3-(3,5-dimethoxyphenyl)-9-(1-methyl-1H-pyrazol-4-yl)imidazo[2,1-f][1,6]naphthyridine]	< 10
Cn1cc(-c2cnc3ccn4c(-c5cnn(C)c5)c(-c5ccccc5Cl)nc4c3c2)cn1 [Example 5, 2-(2-Chlorophenyl)-3,9-bis(1-methyl-1H-pyrazol-4-yl)imidazo[2,1-f][1,6]naphthyridine]	100 to 400
Cn1cc(-c2cnc3ccn4c(-c5ccco5)c(-c5ccccc5Cl)nc4c3c2)cn1 [Example 6, 2-(2-Chlorophenyl)-3-(furan-2-yl)-9-(1-methyl-1H-pyrazol-4-yl)imidazo[2,1-f][1,6]naphthyridine]	10 to 100
Cn1cc(-c2cnc3ccn4cc(-c5c(F)cccc5F)nc4c3c2)cn1 [Example 11, 2-(2,6-Difluorophenyl)-9-(1-methyl-1H-pyrazol-4-yl)imidazo[2,1-f][1,6]naphthyridine]	10 to 100
Cc1nn(C)cc1-c1cnc2ccn3cc(-c4c(F)cccc4Cl)nc3c2c1 [Example 12, 2-(2-Chloro-6-fluorophenyl)-9-(1,3-dimethyl-1H-pyrazol-4-yl)imidazo[2,1-f][1,6]naphthyridine]	10 to 100
Cn1cc(-c2cnc3ccn4c(C5CC5)c(-c5ccccc5Cl)nc4c3n2)cn1 [Example 13, 9-(2-Chlorophenyl)-8-cyclopropyl-2-(1-methyl-1H-pyrazol-4-yl)imidazo[1′,2′:1,2]pyrido[3,4-b]pyrazine]	< 10
Cn1cc(-c2cnc3ccn4cc(-c5c(F)cccc5Cl)nc4c3n2)cn1 [Example 14, 9-(2-Chloro-6-fluorophenyl)-2-(1-methyl-1H-pyrazol-4-yl)imidazo[1′,2′:1,2]pyrido[3,4-b]pyrazine]	10 to 100
Cc1cccc(F)c1-c1nc2c3nc(-c4cnn(C)c4)cnc3ccc2n1C [Example 18, 2-(2-Fluoro-6-methylphenyl)-3-methyl-8-(1-methyl-1H-pyrazol-4-yl)-3H-imidazo[4,5-f]quinoxaline]	10 to 100
COc1ccc(-c2nc3c4nc(-c5cnn(C)c5)cnc4ccc3n2C)c(Cl)c1 [Example 19, 2-(2-Chloro-4-methoxyphenyl)-3-methyl-8-(1-methyl-1H-pyrazol-4-yl)-3H-imidazo[4,5-f]quinoxaline]	100 to 400
Cc1ccoc1-c1nc2c3nc(-c4cnn(C)c4)cnc3ccc2n1C [Example 20, 3-Methyl-8-(1-methyl-1H-pyrazol-4-yl)-2-(3-methylfuran-2-yl)-3H-imidazo[4,5-f]quinoxaline]	100 to 400
Cn1c(-c2c(F)cccc2Cl)nc2c3nc(-c4cnn(C5CC(O)C5)c4)cnc3ccc21 (centres unmarked) [Example 21, 3-(4-(2-(2-Chloro-6-fluorophenyl)-3-methyl-3H-imidazo[4,5-f]quinoxalin-8-yl)-1H-pyrazol-1-yl)cyclobutan-1-ol]	< 10
CC(=O)N1CCN(c2ccc(-c3cnc4ccc5c(nc(-c6c(F)cccc6Cl)n5C)c4n3)cn2)CC1 [Example 22, 1-(4-(5-(2-(2-Chloro-6-fluorophenyl)-3-methyl-3H-imidazo[4,5-f]quinoxalin-8-yl)pyridin-2-yl)piperazin-1-yl)ethan-1-one]	< 10
CN1CCC(c2nc3c4nc(-c5cnn(C)c5)cnc4ccc3n2C)CC1 [Example 23, 3-Methyl-8-(1-methyl-1H-pyrazol-4-yl)-2-(1-methylpiperidin-4-yl)-3H-imidazo[4,5-f]quinoxaline]	≥ 400
Cn1cc(-c2cnc3ccc4c(nc(N5[C@@H]6CC[C@H]5C(=O)NC6)n4C)c3n2)cn1 [Example 24, (1S,5R)-8-(3-Methyl-8-(1-methyl-1H-pyrazol-4-yl)-3H-imidazo[4,5-f]quinoxalin-2-yl)-3,8-diazabicyclo[3.2.1]octan-2-one]	≥ 400

Further lines, results first:

Ki [nM]	Structure (SMILES)
10 to 100	Cc1c(-c2ccccc2Cl)nc2c3cc(-c4cnn(C)c4)cnc3ccn12 [Example 1, 2-(2-Chlorophenyl)-3-methyl-9-(1-methyl-1H-pyrazol-4-yl)imidazo[2,1-f][1,6]naphthyridine]
100 to 400	Cn1cc(-c2cnc3ccn4c(C5=CCCC5)c(-c5ccccc5Cl)nc4c3c2)cn1 [Example 2, 2-(2-Chlorophenyl)-3-(cyclopent-1-en-1-yl)-9-(1-methyl-1H-pyrazol-4-yl)imidazo[2,1-f][1,6]naphthyridine]
10 to 100	C/C=C/c1c(-c2ccccc2Cl)nc2c3cc(-c4cnn(C)c4)cnc3ccn12 [Example 3, (E)-2-(2-Chlorophenyl)-9-(1-methyl-1H-pyrazol-4-yl)-3-(prop-1-en-1-yl)imidazo[2,1-f][1,6]naphthyridine]
100 to 400	Cn1cc(-c2cnc3ccn4c(C#N)c(-c5ccccc5Cl)nc4c3c2)cn1 [Example 7, 2-(2-Chlorophenyl)-9-(1-methyl-1H-pyrazol-4-yl)imidazo[2,1-f][1,6]naphthyridine-3-carbonitrile]
< 10	Cn1cc(-c2cnc3ccn4c(C5CC5)c(-c5ccccc5Cl)nc4c3c2)cn1 [Example 8, 2-(2-Chlorophenyl)-3-cyclopropyl-9-(1-methyl-1H-pyrazol-4-yl)imidazo[2,1-f][1,6]naphthyridine]
10 to 100	CCc1c(-c2ccccc2Cl)nc2c3cc(-c4cnn(C)c4)cnc3ccn12 [Example 9, 2-(2-Chlorophenyl)-3-ethyl-9-(1-methyl-1H-pyrazol-4-yl)imidazo[2,1-f][1,6]naphthyridine]
10 to 100	Cn1cc(-c2cnc3ccn4c(Cl)c(-c5ccccc5Cl)nc4c3c2)cn1 [Example 10, 3-Chloro-2-(2-chlorophenyl)-9-(1-methyl-1H-pyrazol-4-yl)imidazo[2,1-f][1,6]naphthyridine]
< 10	CC(=O)N1CCC(n2cc(-c3cnc4ccn5cc(-c6c(Cl)cccc6Cl)nc5c4c3)cn2)C1 (centres unmarked) [Example 15, 1-(3-(4-(2-(2,6-Dichlorophenyl)imidazo[2,1-f][1,6]naphthyridin-9-yl)-1H-pyrazol-1-yl)pyrrolidin-1-yl)ethan-1-one]
< 10	O=C(O)[C@H]1CC[C@H](n2cc(-c3cnc4ccn5c(C6CC6)c(-c6ccccc6Cl)nc5c4c3)cn2)CC1 [Example 16, (1R,4R)-4-(4-(2-(2-Chlorophenyl)-3-cyclopropylimidazo[2,1-f][1,6]naphthyridin-9-yl)-1H-pyrazol-1-yl)cyclohexane-1-carboxylic acid]
< 10	CC(=O)N[C@H]1CC[C@H](n2cc(-c3cnc4ccn5c(C6CC6)c(-c6ccccc6Cl)nc5c4c3)cn2)CC1 [Example 17, N-((1R,4R)-4-(4-(2-(2-Chlorophenyl)-3-cyclopropylimidazo[2,1-f][1,6]naphthyridin-9-yl)-1H-pyrazol-1-yl)cyclohexyl)acetamide]
< 10	Cc1c(-c2c(Cl)cccc2C(F)(F)F)nc2c3cc(-c4cnn([C@H]5CCN(C(=O)CO)C5)c4)cnc3ccn12 [Example 25, (S)-1-(3-(4-(2-(2-Chloro-6-(trifluoromethyl)phenyl)-3-methylimidazo[2,1-f][1,6]naphthyridin-9-yl)-1H-pyrazol-1-yl)pyrrolidin-1-yl)-2-hydroxyethan-1-one]
< 10	Cc1cccc(C)c1-c1nc2c3cc(-c4cnn([C@H]5CCN(C(=O)CO)C5)c4)cnc3ccn2c1C [Example 26, (S)-1-(3-(4-(2-(2,6-Dimethylphenyl)-3-methylimidazo[2,1-f][1,6]naphthyridin-9-yl)-1H-pyrazol-1-yl)pyrrolidin-1-yl)-2-hydroxyethan-1-one]

— US12552804B2, “Tricyclic heterocycles as FGFR inhibitors” (Incyte Corporation, priority 2019, dated 2026)
